The supplement of paper PMC10307832

Assays:
Assay in all cases: relative viability (nuclei count vs DMSO), 5 days (fraction); higher = more cells survive
[1] = compound: C1CC1C(=O)NC2=NNC3=C2C=CC(=C3)C4=CC(=CC=C4)C(=O)NC5CC5 [XMD13-2] + CC(C)C[C@H](NC(=O)[C@H](Cc1ccccc1)NC(=O)c1cnccn1)B(O)O [Bortezomib] (partner 0.002 µM)
In short: (§1)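 For relative viability, nuclei counts in treated wells were divided by those in vehicle wells. Lung cancer cell lines had been pin-tool dosed in 1536-well plates the day after seeding and cultured for 5 days, then fixed and stained in one step (final 0.05% Triton X-100, 1% formaldehyde, 1 ug/ml Hoechst) and imaged at 4×. Doses were one drug alone or a fixed anchor-drug dose plus five library-drug doses (not always all listed) in √10 steps, and values are duplicate-plate medians.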

[2] = compound: C1CC1C(=O)NC2=NNC3=C2C=CC(=C3)C4=CC(=CC=C4)C(=O)NC5CC5 [XMD13-2] + C[C@]1(O)C[C@@H](c2nc(-c3ccc4ccc(-c5ccccc5)nc4c3)c3c(N)nccn32)C1 [Linsitinib] (partner 1 µM)
In short: as §1

[3] = compound: Cc1ccc(C(=O)Nc2cccc(C(F)(F)F)c2)cc1Nc1cncc(C(N)=O)c1 [ALW-II-49-7] + Cc1nc(NC(=O)N2CCC[C@H]2C(N)=O)sc1-c1ccnc(C(C)(C)C(F)(F)F)c1 [Alpelisib] (partner 2 µM)
In short: as §1

[4] = compound: Cc1nc(Nc2ncc(C(=O)Nc3c(C)cccc3Cl)s2)cc(N2CCN(CCO)CC2)n1 [Dasatinib] + CS(=O)(=O)CCNCc1ccc(-c2ccc3ncnc(Nc4ccc(OCc5cccc(F)c5)c(Cl)c4)c3c2)o1 [Lapatinib] (partner 2 µM)
In short: as §1

Which relative viability ([1]; first compound 0.05 µM) does the source give for UMC-11 here?
Its relative viability is 0.737.

What about the relative viability ([1]; first compound 0.1581 µM) of the same cell line?
The relative viability was 0.896.

What about the relative viability ([1]; first compound 0.5 µM) of the same cell line?
The relative viability was 0.825.

What about the relative viability ([1]; first compound 1.581 µM) of the same cell line?
The relative viability was 0.587.

What about the relative viability ([1]; first compound 5 µM) of the same cell line?
The relative viability was 0.981.

And the relative viability ([2]; first compound 0.05 µM)?
Its relative viability is 1.18.

And the relative viability ([2]; first compound 0.1581 µM)?
The relative viability was 0.942.

And the relative viability ([2]; first compound 0.5 µM)?
Its relative viability is 0.996.

What about the relative viability ([2]; first compound 1.581 µM) of the same cell line?
Its relative viability is 1.07.

What about the relative viability ([2]; first compound 5 µM) of the same cell line?
Its relative viability is 1.04.

And the relative viability ([3]; first compound 0.08 µM)?
The relative viability was 0.841.

And the relative viability ([3]; first compound 0.253 µM)?
Its relative viability is 1.

And the relative viability ([3]; first compound 2.53 µM)?
The relative viability was 1.06.

And the relative viability ([3]; first compound 8 µM)?
Its relative viability is 0.971.

What about the relative viability ([4]; first compound 0.005 µM) of the same cell line?
Its relative viability is 0.877.

And the relative viability ([4]; first compound 0.01581 µM)?
The relative viability was 0.702.

What about the relative viability ([4]; first compound 0.05 µM) of the same cell line?
The relative viability was 0.835.

What about the relative viability ([4]; first compound 0.1581 µM) of the same cell line?
The relative viability was 0.333.

And the relative viability ([4]; first compound 0.5 µM)?
Its relative viability is 0.377.
